# Assay results as given in PubChem BioAssay AID463199 (Broad Institute, 2010).
# Activity calls are given as the source filed them.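 Rule for the calls: active = AC50, the dose giving half-maximal effect, exceeds a fixed cutoff for a compound that rescues yeast growth under heat; inactive = the rest, inconclusive results apart.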
# System: S. cerevisiae Burl-1 ts mutant growth, BacTiter-Glo, 38.5C 24 h
# Assay: restored growth of temperature-sensitive Burl-1 yeast – whole organism, S. cerevisiae, Burl-1 ts mutant, luminescence, counter-screen for SUMOylation pathway inhibitor project, dose response (AID 463199)
row,SMILES,AC50
1,CCOc1ccc(CCNC(=O)COC(=O)COc2ccc(C(C)=O)cc2)cc1OCC,> 42 µM (inactive)
2,c1ccc(N2CCN(C3CCSC3)CC2)cc1 (stereo not given),> 42 µM (inactive)
3,O=[N+]([O-])c1c(NCCCO)cc(Sc2nc3ccccc3s2)c2nonc12,> 42 µM (inactive)
4,Nc1nc2ccccc2cc1-c1cccs1,> 42 µM (inactive)
5,COC(=O)[C@@]12CCCCN1[C@H](c1ccc(-c3cccc(Cl)c3)c(OC)c1)[C@H]1C(=O)N(C)C(=O)[C@H]12,> 42 µM (inactive)
6,C=CSc1sc(Cl)c(N(C)C)c1[N+](=O)[O-],> 42 µM (inactive)
7,COc1cc(CN2CCC(Oc3cc(C(=O)NC4CC4)ccc3OC)CC2)cc(OC)c1,16.9 µM
8,Cc1ccc(N(C(=O)CCl)C(C(=O)NC2CCCCC2)c2cccnc2)cc1C (stereo not given),> 42 µM (inactive)
9,CCOC(=O)C1(Cc2cccc(F)c2)CCN(C(=O)c2cnccn2)CC1,> 42 µM (inactive)
10,COc1cc(C(=O)N/N=C/c2ccccn2)cc(OC)c1OC,> 42 µM (inactive)
11,Cc1ccc(C(=O)NCCCN2CCOCC2)cc1,> 42 µM (inactive)
12,COc1ccc(-c2noc(CSc3nc(-c4ccccc4)cc(=O)[nH]3)n2)cc1OC,> 42 µM (inactive)
13,CC(C)C(O)(C(=O)NNc1ccccc1)C(C)C,> 42 µM (inactive)
14,Cc1ccc(/C=C/C(=O)O)cc1S(=O)(=O)N(CCO)CCO,> 42 µM (inactive)
15,Cc1ccc(NC(=O)CCS(=O)(=O)c2ccc3nc(C)sc3c2)cc1,> 42 µM (inactive)
16,Cc1cc(C)cc(C(=O)NC(CC(N)=O)c2ccc(N3CCC(N4CCCCC4)CC3)c([N+](=O)[O-])c2)c1 (stereo not given),> 42 µM (inactive)
17,O=S(=O)(NCCN1CCCC1)c1cccc2cccnc12,> 42 µM (inactive)
18,Cc1cc(C)n(-c2nc(-c3cccc(Cl)c3)cs2)n1,> 42 µM (inactive)
19,COc1ccc(NC(=O)c2cc(S(=O)(=O)Nc3ccc(OC)cc3)cs2)cc1,> 42 µM (inactive)
20,CN(C)CCNC(=O)c1onc(CSc2ccc(F)c(F)c2)c1C(=O)NCCN(C)C,> 42 µM (inactive)
21,CCN(CC)c1ccc(/C=N/NC(=O)OC(C)(C)C)cc1,> 42 µM (inactive)
22,Cc1ccc(C(=O)N/C(=C\c2cccs2)C(=O)NCCc2c[nH]c3ccccc23)cc1,> 42 µM (inactive)
23,CCn1nnc(-c2ccccc2NC(=O)c2cnccn2)n1,> 42 µM (inactive)
24,CC(=O)Nc1ccc(CN2CCCC(CO)(Cc3cccc(Cl)c3)C2)cc1 (stereo not given),> 42 µM (inactive)
25,Cn1c(SCC(=O)N/N=C/c2ccc([N+](=O)[O-])s2)nnc1-c1ccc(Cl)cc1,> 42 µM (inactive)

row,SMILES,AC50
1,Cc1ccc(C(=O)/C=C/Nc2ccccc2C(N)=O)cc1,> 42 µM (inactive)
2,Cc1ccc(N2C(=O)c3cccc4c(N5CCN(C)CC5)ccc(c34)C2=O)c2cccnc12,> 42 µM (inactive)
3,O=C(OCCCCOC(=O)c1ccccc1)c1ccccc1,> 42 µM (inactive)
4,Cc1ccc(NC(=O)N[C@H](C(=O)O)C(C)C)c(C)c1,> 42 µM (inactive)
5,Cc1cccc(C)c1NC(=O)C(Cl)C(=O)c1ccccc1 (stereo not given),> 42 µM (inactive)
6,CN1CCCCC1=NCCCn1cnc2c1c(=O)n(C)c(=O)n2C,> 42 µM (inactive)
7,COc1ccccc1NC(=O)CSc1nc(O)c(Cc2ccccc2)c(=O)[nH]1,> 42 µM (inactive)
8,CC(C)(C)c1ccc(C(=O)COC(=O)CN2C(=O)NC3(CCCC3)C2=O)cc1,> 42 µM (inactive)
9,CCOC(=O)c1ccc(NC(=O)c2c(NC(=O)CCC(=O)O)sc3c2CCCCC3)cc1,> 42 µM (inactive)
10,Fc1cccc(Nc2ncnc3sccc23)c1,> 42 µM (inactive)
11,OCC[C@@H]1C[C@H](O)[C@@H](O)[C@]2(CCc3ccccc3CO2)O1,> 42 µM (inactive)
12,CCCOc1ccc(N2C(=O)CC(N3CCC(C(=O)OCC)CC3)C2=O)cc1 (stereo not given),> 42 µM (inactive)
13,COc1ccc(C(=O)O/N=C(\N)c2ccccc2)cc1OC,> 42 µM (inactive)
14,COc1cc2c(cc1OC)CN(C(=O)Cc1c(F)cccc1Cl)CC2,> 42 µM (inactive)
15,CC1CCCN(C(=O)Cc2ccc(F)cc2)C1 (stereo not given),> 42 µM (inactive)
16,Cc1cc(C)c(S(=O)(=O)NCC(c2cccnc2)N2CCN(Cc3ccccc3)CC2)c(C)c1 (stereo not given),> 42 µM (inactive)
17,O=C(COc1ccccc1)Nc1cccc(-c2nnc(-c3ccccc3)o2)c1,> 42 µM (inactive)
18,Cc1nn(C)cc1CNC(=O)C1CCC(=O)N(Cc2cccc(C(F)(F)F)c2)C1 (stereo not given),> 42 µM (inactive)
19,COc1ccc(NC(=O)c2ccc(COc3ccccc3OC)o2)cc1OC,> 42 µM (inactive)
20,O=C(Nc1ccncc1Cl)c1ccncc1,> 42 µM (inactive)
21,COc1cccc(/C=C2/C(=O)NN(c3ccc(Br)cc3)C2=O)c1O,> 42 µM (inactive)
22,CCN1CCCC1CN(Cc1cc2ccc(C)cc2[nH]c1=O)C(=S)Nc1ccccc1C(=O)OC (stereo not given),> 42 µM (inactive)
23,O=C(c1cc2ccccc2o1)N1CCN(C/C=C/c2ccccc2)CC1,> 42 µM (inactive)
24,O=c1c2ccccc2c2ccccc2c(=O)n1-c1ccccc1,> 42 µM (inactive)
25,Cc1nn(C)c(Cl)c1CN1CCN(CCC(C)C)C(CCO)C1 (stereo not given),> 42 µM (inactive)

row,SMILES,AC50
1,COc1cc2c(cc1OC)C(c1ccccc1C)CC(=O)N2 (stereo not given),> 42 µM (inactive)
2,COc1cc([C@@H]2CC=C(C(=O)O)[C@H](c3ccccc3F)N2S(=O)(=O)c2ccc(C)cc2)cc(OC)c1OC,> 42 µM (inactive)
3,CCn1ncc(Br)c1C(=O)Nc1ccc(OC(F)(F)F)cc1,> 42 µM (inactive)
4,O=C(CN1c2ccccc2Sc2ccccc21)N/N=C/c1ccc(Cl)cc1Cl,> 21 µM (inactive)
5,CC1Cc2ccccc2N1C(=O)CNc1cccc(S(=O)(=O)N2CCCC2)c1 (stereo not given),> 42 µM (inactive)
6,CCN(CC)c1ccc2c(C)c(CN3CCOCC3)c(=O)oc2c1,> 42 µM (inactive)
7,CC1(C)NC(=O)N(CCCOc2ccccc2Br)C1=O,> 42 µM (inactive)
8,COc1cc(OC)c(C(=O)N2CCN(c3ccccn3)CC2)cc1OC,> 42 µM (inactive)
9,CC1(C)C(C=C(Cl)Cl)C1C(=O)OCc1cccc(Oc2ccccc2)c1 (stereo not given),> 42 µM (inactive)
10,Cn1cc(C(=O)N2CCCC(Nc3ccc(F)cc3)C2)c2ccccc21 (stereo not given),> 42 µM (inactive)
11,CC(=O)c1ccccc1C(=O)N1CCCC(N2CCN(Cc3ccc4c(c3)OCO4)CC2)C1 (stereo not given),> 42 µM (inactive)
12,Cc1cccc2nc(COc3ccc4ccccc4c3Br)cn12,> 42 µM (inactive)
13,CC1(C)NC(=O)N(CC(=O)O)C1=O,> 42 µM (inactive)
14,COc1ccc(N=Cc2c(O)n(C)c(=O)[nH]c2=O)cc1,> 42 µM (inactive)
15,CCOC(=O)N1CCN(S(=O)(=O)c2ccc(Br)s2)CC1,> 42 µM (inactive)
16,CSCCC(NC(=O)c1ccco1)C(=O)N1CCN(Cc2ccccc2)CC1 (stereo not given),> 42 µM (inactive)
17,CC(=O)C(C(c1ccccc1)c1c[nH]c2ccccc12)[N+](=O)[O-] (stereo not given),> 42 µM (inactive)
18,COCCNC(=O)C(=O)NCC1OCCN1C(=O)c1ccc(Cl)cc1 (stereo not given),> 42 µM (inactive)
19,CCOC(=O)c1c(C)[nH]c2c1cc(O)c1ccccc12,> 42 µM (inactive)
20,Cc1nc(N/N=C\c2ccc3c(c2)OCO3)sc1C,> 42 µM (inactive)
21,CCn1c(SC(=O)NC2CCCCC2)nnc1-c1cccs1,> 42 µM (inactive)
22,COc1ccc(OC)c2c(N)c(C#N)c(C(F)(F)C(F)(F)F)nc12,> 42 µM (inactive)
23,CCC(=O)N1c2ccc(S(=O)(=O)N3CCN(c4ccc([N+](=O)[O-])cc4)CC3)cc2CC1C (stereo not given),> 42 µM (inactive)
24,O=C(Nc1ccccc1F)C1CCN(C(=O)Cc2ccccc2)CC1,> 42 µM (inactive)
25,COc1cccc(OC)c1C(=O)Nc1ccc2c(c1)n(C)c(=O)n2C,> 42 µM (inactive)

row,SMILES,AC50
1,Cc1ccc(-n2nnnc2C(Cl)(Cl)c2nnnn2-c2ccc(C)cc2)cc1,> 42 µM (inactive)
2,O=[N+]([O-])c1cc([N+](=O)[O-])c2cc3ccccc3nc2c1,> 42 µM (inactive)
3,CCCN1CCN(CCCNC(=O)CCn2nc(-c3ccccc3)ccc2=O)CC1,> 42 µM (inactive)
4,CCOC(=O)C1C(=O)NC(SCC(=O)Nc2nccs2)=C(C#N)C1c1ccccc1OCC (stereo not given),> 42 µM (inactive)
5,C/C(=N/OCO/N=C(\C)c1ccccc1)c1ccccc1,> 42 µM (inactive)
6,COc1ccc2[nH]c(=O)c(CN(C(=O)c3ccccn3)c3ccccc3)cc2c1,> 42 µM (inactive)
7,O=c1c2ccccc2ncn1Cc1ccc2c(c1)OCO2,> 42 µM (inactive)
8,Cc1ccc(F)cc1NS(=O)(=O)c1ccc(Cl)s1,> 42 µM (inactive)
9,CCOc1ccc(/C=N/NS(=O)(=O)c2ccc(C)cc2)cc1OC,> 42 µM (inactive)
10,O=C(O)c1cc(S(=O)(=O)Nc2ccc(OCc3ccccc3)cc2)ccc1Br,> 42 µM (inactive)
11,O=C(COC(=O)Cc1ccsc1)NC1CCCCCC1,> 42 µM (inactive)
12,Cc1nc(N)c(Cc2ccccc2F)c(N)n1,> 42 µM (inactive)
13,CN(C=O)CP(=O)(O)CN(C)C=O,> 42 µM (inactive)
14,CCCCCC(=O)Nc1ccc(-c2csc(N)n2)cc1,> 42 µM (inactive)
15,Cc1ccc(OCC(=O)NN2C(=O)c3ccccc3C2=O)c(C)c1,> 42 µM (inactive)
16,O=C(NNc1ccccc1)C(CCO)C(=O)NNc1ccccc1,> 42 µM (inactive)
17,COc1cc(/C=N/NC(=O)c2cccc([N+](=O)[O-])c2)ccc1O,> 42 µM (inactive)
18,CCOc1ccc(-c2nc(C#N)c(N3CCOCC3)o2)cc1,> 42 µM (inactive)
19,COCC(=O)n1nc(NCc2ccc(OC)cc2)nc1NCc1ccc(OC)cc1,> 42 µM (inactive)
20,CCCCCCCCc1nc(SCC(C)=O)n[nH]1,> 42 µM (inactive)
21,COc1ccc(N2C(=O)CSC23CCCCC3)cc1,> 42 µM (inactive)
22,Cn1c(C(=O)NCCc2ccsc2)cc2c(=O)n(C)c3ccccc3c21,> 42 µM (inactive)
23,O=C(O)c1ccc(CNC(=O)c2ccccc2NC(=O)c2ccc([N+](=O)[O-])cc2)cc1,> 42 µM (inactive)
24,O=c1[nH]c(O)c(N=Nc2cc([N+](=O)[O-])ccc2O)c(=O)[nH]1,> 42 µM (inactive)
25,CSc1ccc(CCNC(=O)C2CCCN(S(=O)(=O)N3CCOCC3)C2)cc1 (stereo not given),> 42 µM (inactive)
